| Compound | melting point [°C] |
| --- | --- |
| CC(=O)c1ccc2c(c1)C(NC(=NC#N)Nc1ccccc1)C(O)C(C)(C)O2 (stereo not drawn) | 182 to 184 |
| CC(=O)OC1CCCCC1n1c(Br)nc2cc(Cl)c(Cl)cc21 (stereo not drawn) | 167 to 169 |
| COc1ccc(-n2nc(C(F)F)cc2-c2ccc(SC)cc2)cc1 | 100 to 101 |
| CCCCCS(=O)(=O)NC(=O)/C=C/c1ccc(OCCOC)cc1Oc1ncc(C(F)(F)F)cc1Cl | 123 to 125 |
| CCS(=O)(=O)C1C(OC)(OC)CC2C3CCC4=CC(=O)C=CC4(C)C3(F)C(O)CC21C (stereo not drawn) | 268 to 270 |
| Nc1ncc(-c2cc(N3CCOCC3)nc(-n3c(C(F)F)nc4ccccc43)n2)cn1 | 281 to 285 |
| CCNC(=O)c1sc(Oc2ccc3c(c2)OCO3)c2c1CCc1cnn(C)c1-2 | 138 to 139 |
| Cc1cccc(NC(=S)NC2N=C(c3ccccc3F)c3ccccc3N(CC(=O)N3CC4CCC(CC4)C3)C2=O)c1 (racemic) | 129 to 134 |
| Cn1nc(Br)c(I)c1-c1ccc(F)cc1Cl | 139 to 141 |
| OCCN1CCN(c2cc(Cl)nc(-c3ccccc3)n2)CC1 | 103 to 105 |
| O=c1c(Cl)nsnc1Cl | 81 to 82 |
| CC(=O)N1CCN(c2cc(Cl)c(Cl)c(Cl)c2)CC1 | 133 to 136 |
| CC1=Cc2ccc(Cl)cc2C(c2ccc([N+](=O)[O-])c(C)c2)=NN1C(=O)NC1CC1 | 221 to 223 |
| N#Cc1nn(-c2c(Cl)cc(C(F)(F)F)cc2Cl)cc1SC(F)(F)F | 126 to 128 |
| Cc1cccc(NC(=O)NCC(=O)N(CC(=O)N(C)c2cccc(C)c2)c2ccccc2)c1 | 165 |
| CCOC(=O)c1nc2cnn(CC)c2nc1C | 64 to 65 |
| O=S(=O)(NC1CCCCC1)c1ccc2c(c1)S(=O)(=O)NC1CCCN21 (stereo not drawn) | 195 to 197 |
| CN1c2ccccc2Sc2cc(C=CC3(C=Cc4ccc5c(c4)Sc4ccccc4N5C)C=CC(c4ccccc4)=CC3)ccc21 (stereo not drawn) | 380 |
| COC(=O)c1c(F)cc(OCCNC(=O)C2Cc3ccccc3N2S(=O)(=O)c2ccc(-c3ccc(F)cc3C)cc2)cc1F (stereo not drawn) | 65 to 72 |
| Cc1ccc2c(c1)C(C(=O)Nc1c(C(C)C)cccc1C(C)C)c1ccccc1CO2 (stereo not drawn) | 166 to 167 |
| COC(=O)c1n[nH]c2nc(N3CCN(C)CC3)ccc12 | 230 to 231 |
| CCOC(=O)C(=CN(C)C)C(=O)Nc1ccc(Br)cc1C | 88 to 90 |
| CC(C)(C)OC(=O)N[C@@H](CC(=O)NCCC(=O)OCc1ccccc1)C(=O)OCc1ccccc1 | 77 to 78 |
| CC(C)(C)NCC(O)c1cc(O)ccc1Cl (stereo not drawn) | 162 to 163 |
| CC(=O)c1ccc(-n2c(-c3cc(-c4ccc(S(C)(=O)=O)cc4)c(N4CCOCC4)s3)nc3ccccc3c2=O)cc1 | 239 to 242 |
| Cn1nc(Cl)c(Cl)cc1=O | 97 |
| O=[N+]([O-])C1=C2N(Cc3ccc(Cl)nc3)CCN2C2CCCC1O2 (stereo not drawn) | 175 |
| CC1(C)CC(NC(=O)c2cc(Cl)cc(NC=O)c2O)CC(C)(C)C1 | 214 to 215 |

| Compound | melting point [°C] |
| --- | --- |
| CCOP(=O)(OCC)c1nc(N2CCCCC2)nc(N2CCCCC2)n1 | 103 to 105 |
| CC1(C)CC(=O)Nc2c(Br)cc3c(c21)OC(CN=[N+]=[N-])C3 (stereo not drawn) | 187 to 189 |
| Cc1c(F)c(F)c(F)c2c1c(=O)c(C(=O)O)cn2C1CC1 | 234 to 235 |
| CCOC(=O)C(=O)c1cn(Cc2ccc(C(C)(C)C)cc2)c2cc(-c3ccc(OC(F)(F)F)cc3)ccc12 | 146 to 147 |
| C#CCN1C(=O)C(C)Oc2cc(Cl)c(-c3ccc(C(F)(F)F)n(C)c3=O)cc21 (stereo not drawn) | 203 to 204 |
| CC(C)=CCN1Cc2cc(Cl)cc3[nH]c(=S)n(c23)C[C@@H]1C | 186 |
| O=C(CCc1ccccc1)N[C@H](Cc1ccc(C(F)(F)F)c(F)c1)[C@@H](O)c1ccc(F)cc1 (racemic) | 126 to 127 |
| Cc1noc(C)c1S(=O)(=O)n1c(COC(C)C(=O)O)cc2cc(Cl)ccc21 (stereo not drawn) | 110 to 112 |
| FC(F)(F)c1cccc(N=C2SCCN2C(=S)Nc2cccc(C(F)(F)F)c2)c1 | 116 to 117 |
| CCOC(=O)C(=CNc1cccccc1=O)C(=O)OCC | 66 to 68 |
| NC(=O)N1CC(Oc2ccc(Cl)cc2Cl)C1 | 169 to 170 |
| CCC(CC)NC(=O)NC/C=C\COc1cc(CN2CCCCC2)ccn1 | 82 to 84 |
| CCCN(Cc1ccc(-c2ccccc2C(=N)NO)cc1)c1nc2ccccc2cc1C(=O)OCC | 61 to 67 |
| CC(C)(C)OC(=O)N1C2CCC1CNC2 | 102 to 104 |
| Cn1c(C(F)(F)F)cc(=O)n(-c2ccc(Cl)c(C=CC(=O)OCC(F)(F)F)c2)c1=O | 170 to 172 |
| CC(C)(C=O)CN1CCN(CC(C)(C)C=O)C1=O | 78 to 80 |
| CS(=O)(=O)c1c(F)nc(F)nc1F | 103 to 105 |
| CN(C)C(=O)C1(c2cc(C#N)ccc2O)CCCC1 | 144 to 146 |
| CCNc1nc(C)c(C(=O)OCC)c(N2CCN(C)CC2)c1N | 73 to 75 |
| C[C@H]1[C@H](NC(=O)OC(C)(C)C)C(=O)N1OCc1ccccc1 | 78 |
| Oc1cc2onc(C3CCCCC3)c2cc1O | 177 |
| COc1ccc(C)cc1NC(=O)Nc1ccc(N2CCN(C(=O)Nc3cc(OCC(O)CO)ccc3Cl)CC2)cc1 (stereo not drawn) | 114 to 118 |
| O=C(Nc1ccccc1S(=O)(=O)N1CCCCC1)N[C@@H](Cc1ccc(Nc2nccc3cnccc23)cc1)C(=O)O | 207 |
| N=C(N)SCCc1ccc(Cl)c(Cl)c1 | 135 to 139 |
| CCCc1c(OCCCCc2ccc3cc(OC)c(OC)cc3c2)ccc(C(=O)O)c1O | 147 to 148 |
| CC(C)(C)c1cc(/C=C/C=C/C(=O)NCCN2CCC(c3c[nH]c4ccccc34)CC2)cc(C(C)(C)C)c1O | 108 to 115 |
| COC(=O)c1ccc(C)c(-c2cc3cnc(NC4CCOCC4)nc3n(C)c2=O)c1 | 122 to 126 |

Second part, the compound after the results:

| melting point [°C] | Compound |
| --- | --- |
| 213 to 215 | Cc1ccc(S(=O)(=O)Nc2cc3c(c(C(=O)O)c2)NCCO3)cc1 |
| 91 to 93 | COc1cccc(CNC(=O)c2ncc3ccccc3n2)c1 |
| 129 to 130 | CC(C)Oc1ccc(COc2ccc(CC(=O)O)cc2Cl)cc1Cl |
| 134 | C=Cc1ccnc2c([N+](=O)[O-])cccc12 |
| 162 to 165 | CCOCCOCCn1c(C=O)cc2c3c(c(-c4ccccc4Cl)cc21)C(=O)NC3=O |
| 240 to 242 | NC(=O)c1cccc2c1c1c(OCC(=O)O)ccc(Cl)c1n2Cc1ccccc1 |
| 143 to 146 | Cc1ccc(N(Cc2cccnc2)S(C)(=O)=O)cc1 |
| 198 to 199 | COc1ccc(/C=C/c2ccc3c(=O)n(-c4ccccc4)ncc3c2)cc1 |
| 214 to 217 | O=C(O)c1ccccc1Nc1c(O)ccc2ccccc12 |
| 157 to 158 | O=C(O)c1cccc(Oc2ncccc2C(=O)NCc2ccccc2)c1 |
| 118 | NC(=O)COc1cccc(CCNS(=O)(=O)c2cccc(C(F)(F)F)c2)c1 |
| 159 to 160 | Cc1ccc(-c2ccc3c(=O)ccoc3c2)cc1 |
| 146 to 148 | CC(=O)OC(CBr)Cc1c(O)ccc2ncccc12 (stereo not drawn) |
| 166 to 168 | O=C(O)COc1ccc(SCc2cc(-c3ccc(C(F)(F)F)cc3)no2)c2c1CCC2 |
| 215 to 217 | CCc1nnc2c(NC3CCC3)nc3ccccc3n12 |
| 266 to 267 | CSc1nc2c(cc1Cl)N(C(=O)Nc1cccnc1)CC2 |
| > 320 | N#Cc1ccc2cc3c4c(cccc4c2c1)C(=O)OC3=O |
| 192 | CCCCC(c1ccc2[nH]c(=O)c(-c3ccccc3)nc2c1)n1ccnc1 (stereo not drawn) |
| 122 | N#Cc1cccc2c1CCC2=O |
| 215 to 216 | Cc1c(C(=O)O)ccc2c3ccccc3n(Cc3ccccc3)c12 |
| 76 to 78 | CC(c1cccnc1)N(c1ccc(F)cc1F)S(C)(=O)=O (stereo not drawn) |
| 124 | CC(C)(C)c1cc(C(=O)OCCc2ccc([N+](=O)[O-])cc2)cc(C(C)(C)C)c1O |

| melting point [°C] | Compound |
| --- | --- |
| 174 to 179 | O=C(O)CCCc1cc2cc(Cl)ccc2n1S(=O)(=O)c1ccc2c(c1)CCO2 |
| 264 to 266 | COc1ccc(C#N)cc1-c1cc(-c2ccc(C#N)cc2[N+](=O)[O-])no1 |
| 217 to 219 | Cn1cc(C2=C(c3ccncc3)C(=O)OC2=O)c2ccccc21 |
| > 330 | O=C1NC(=O)c2c1c(-c1cc([N+](=O)[O-])cc([N+](=O)[O-])c1)cc1[nH]c3ccc(O)cc3c21 |
| 124 to 126 | O=C(O)/C=C(/C#Cc1ccccc1)c1ccccc1 |
| > 250 | CCn1cc(-c2nc(C(N)=O)c(N)nc2-c2ccccc2)ccc1=O |
| 81 to 82 | CN(C)CCc1ccc(OCCCN2C(=O)c3ccccc3C2=O)cc1 |
| 131 to 132 | C=CCc1c(SC(C)=O)[nH]c(-c2ccc(Cl)cc2)c1-c1ccc(Cl)cc1 |
| 107 to 108 | COc1ccc(C=C2CCN(C(=O)OCc3ccccc3)CC2)cc1[N+](=O)[O-] |
| 73 to 76 | Cc1coc(C)c1-c1nc2cc(Cl)cc(CCc3ccccn3)c2o1 |
| 222 to 223 | CC(Oc1ccc(-c2ccc(S(N)(=O)=O)cc2)cc1)C(O)CCc1cccnc1 (stereo not drawn) |
| 212 to 213 | COCCc1nc2c(N)nc3cc(-c4cccc(CO)c4)ccc3c2n1CC(C)(C)O |
| 50 | O=C(Cc1cccc2ccccc12)N1CCC(c2nccc3occc23)CC1 |
| 281 | NN=C(N)Nc1c(Cl)cccc1Cl |
| 158 | Cc1cc(OS(=O)(=O)c2c(F)cccc2F)cc2c(C3CCN(C)CC3)cn(Cc3ccccc3)c12 |
| 99 to 101 | CCCC(OC)(C(=O)n1ccnc1)c1ccc(Cl)cc1Cl (stereo not drawn) |
| 85 to 89 | CC(C)N(N=O)c1ccc(N(N=O)c2ccccc2)cc1 |
| 184 to 186 | CCc1nc2c(N)nc3cc(OCc4ccc(C(=O)OC)o4)ccc3c2s1 |
| 212 to 215 | Cc1ccc(-c2c(Cl)nc(C#N)n2O)cc1 |
| 218 to 220 | O=c1c(O)cn(-c2ccccc2F)nc1-c1ccnn1-c1ccccc1 |
| 98 to 99 | O=[N+]([O-])c1ccc(SSc2ncccn2)c(C(Cl)(Cl)Cl)c1 |

— a melting point compilation (Tetko et al.; mined from patent text by program, amines drawn as free bases though some values may be those of a salt)
